We go through eight compounds from US6414005B1, “Heterocyclic compounds having nos inhibitory activities” (Chugai Seiyaku Kabushiki Kaisha, priority 1997, dated 2002).

pIC50: −log10 of the molar value. Counter-ions that a name gives are not always drawn. Like-named read-outs stand apart in the source and are kept apart here.

Assay [1] has as its target T1, nNOS (type 1) (Rattus norvegicus, UniProt P29476).
T1 construct: from tissue; host or cells: rat cerebral cortex, 100,000 x g supernatant (cytosol)
The experiment in a line: NOS activity, conversion of L-[3H]arginine to L-[3H]citrulline, crude enzyme of nNOS. Type of assay: biochemical. The following applies: for IC50: crude enzyme from rat cerebral cortex, soluble cytosolic fraction, 100 nM L-[3H]arginine, 37° C., 10 min, read-out: IC50 (nM) nNOS (type 1); for Ratio of IC50 eNOS/nNOS / Ratio of IC50 iNOS/nNOS: index of selectivity. Here is the method:
The crude enzyme of nNOS was prepared by the following procedure. Normal untreated male Sprague Dawley (SD) rats (body weight, 300-400 g) were decapitated; the whole brain was immediately taken out from each animal and the cerebral cortex was separated on ice. Then, 5 volumes of 50 mM Tris-HCl containing 1 mM DTT (pH 7.4) was added and the mixture was homogenized for 3 min and centrifuged at 1,000×g for 10 min. The resulting supernatant was further centrifuged at 100,000×g for 60 min and a soluble cytosolic fraction of the finally obtained supernatant was used as the crude enzyme of nNOS.
(§1) The reaction was started by addition of L-[^3H] arginine. After incubation at 37° C. for 10 min, the reaction was terminated by addition of 2 ml of 50 mM Tris-HCl (pH 5.5) containing 1 mM EDTA and placing the mixture on ice. The reaction solution was passed through a cation-exchange resin column (Dowex AG50WX-8, Na^+ form, 3.2 ml) to separate the reaction product L-[^3H] citrulline from the unreacted residual substrate L-[^3H] arginine. The eluate was combined with another eluate resulting from the passage of a given amount of distilled water through the column and put into a minivial for recovery of L-[^3H] citrulline. Thereafter, a scintillation fluid was added and the contained radioactivity was measured with a liquid scintillation counter to determine the amount of L-[^3H] citrulline.
The activity of nNOS or eNOS was determined by subtracting the activity detected in the absence of CaCl2 and calmodulin from the activity detected in the presence of CaCl2 and calmodulin. The protein concentration of each crude enzyme sample was determined with a micro-assay kit of Bio Rad Co. Each experiment was conducted in a duplicate.

In assay [2] the target is T2, eNOS (type 3) (Bos taurus, UniProt P29473).
T2 construct: Cow pulmonary arterial endothelium cells (CPAE) were cultured in a MEM medium containing 20% FBS; endogenous in cells; host or cells: CPAE (cow pulmonary arterial endothelium cells), detergent extract, 100,000 x g supernatant
T2 sequence (P29473 2-1205): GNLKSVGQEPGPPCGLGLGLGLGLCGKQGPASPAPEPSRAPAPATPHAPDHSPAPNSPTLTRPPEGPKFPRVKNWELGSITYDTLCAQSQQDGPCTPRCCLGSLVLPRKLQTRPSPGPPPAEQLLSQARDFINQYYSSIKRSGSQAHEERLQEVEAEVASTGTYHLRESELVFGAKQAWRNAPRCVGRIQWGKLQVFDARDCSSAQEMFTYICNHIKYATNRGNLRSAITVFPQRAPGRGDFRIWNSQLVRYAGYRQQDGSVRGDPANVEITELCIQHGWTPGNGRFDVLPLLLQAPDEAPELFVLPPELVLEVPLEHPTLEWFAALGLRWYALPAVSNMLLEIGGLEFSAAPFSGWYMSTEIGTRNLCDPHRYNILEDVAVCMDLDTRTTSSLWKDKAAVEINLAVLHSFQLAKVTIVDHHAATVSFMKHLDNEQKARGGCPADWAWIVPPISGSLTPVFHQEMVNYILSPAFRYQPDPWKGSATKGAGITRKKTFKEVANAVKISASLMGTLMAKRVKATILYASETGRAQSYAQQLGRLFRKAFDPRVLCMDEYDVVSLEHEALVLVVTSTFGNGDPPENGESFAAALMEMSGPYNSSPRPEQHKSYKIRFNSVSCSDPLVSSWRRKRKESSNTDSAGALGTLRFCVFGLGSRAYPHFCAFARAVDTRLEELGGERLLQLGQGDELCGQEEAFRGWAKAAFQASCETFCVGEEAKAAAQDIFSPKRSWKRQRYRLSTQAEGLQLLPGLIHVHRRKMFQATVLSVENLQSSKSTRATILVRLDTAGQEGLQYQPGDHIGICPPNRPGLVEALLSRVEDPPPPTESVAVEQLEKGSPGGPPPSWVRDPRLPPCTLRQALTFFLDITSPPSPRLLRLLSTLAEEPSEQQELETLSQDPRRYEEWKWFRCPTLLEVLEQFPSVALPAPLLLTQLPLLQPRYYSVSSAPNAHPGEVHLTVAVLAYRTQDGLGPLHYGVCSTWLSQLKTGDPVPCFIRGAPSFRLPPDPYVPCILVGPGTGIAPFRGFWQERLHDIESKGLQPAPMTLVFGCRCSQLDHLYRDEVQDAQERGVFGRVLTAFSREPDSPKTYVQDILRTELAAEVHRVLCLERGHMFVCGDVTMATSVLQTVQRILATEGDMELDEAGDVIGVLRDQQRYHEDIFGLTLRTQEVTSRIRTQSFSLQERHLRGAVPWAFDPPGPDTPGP
The experiment in a line: NOS activity, conversion of L-[3H]arginine to L-[3H]citrulline, crude enzyme of eNOS. In kind it is biochemical, cow. As to conditions: for IC50: crude enzyme from cow pulmonary arterial endothelium cells (CPAE), 100 nM L-[3H]arginine, 37° C., 10 min; for Ratio of IC50 eNOS/inos: index of selectivity.
Experimental: The crude enzyme of eNOS was prepared by the following procedure. Cow pulmonary arterial endothelium cells (CPAE) were cultured in a MEM medium containing 20% FBS. Several days later, the cells were detached from the flask using a 0.25% trypsin solution containing 1 mM EDTA and, after addition of a suitable amount of FBS, centrifuged at 1,000 rpm for 10 min. A suitable amount of Ca- and Mg-free phosphate buffer (pH 7.4) was added to the precipitating cells and they were centrifuged at 1,000 rpm for 10 min. The same step was repeated to wash the cells which, upon addition of 50 mM Tris-HCl (pH 7.4) containing 1% Triton X-100 and 1 mM DTT, were left to stand in ice for 1 h. Subsequently, the mixture was homogenized for 3 min and kept in ice for 30 min with occasional stirring. Finally, the mixture was centrifuged at 100,000×g for 60 min and the resulting supernatant was used as the crude enzyme of eNOS.

Assay [3] concerns the target iNOS (type 2) (Rattus norvegicus, UniProt Q06518). Kind of assay: NOS activity, conversion of L-[3H]arginine to L-[3H]citrulline, iNOS. Type of assay: biochemical. As to conditions: 100 nM L-[3H]arginine, 37° C., 10 min. Here is the method:
Crude enzymes of the respective NOS isoforms were prepared by the following procedures (Nagafuji et al., Neuroreport 6, 1541-1545, 1995).
The method of measuring NOS activity was basically the same as already reported by the present inventors and consisted of determining quantitatively the conversion of a substrate L-[^3H]arginine to a reaction product L-[^3H] citrulline (Nagafuji et al., in Brain Edema IX (Ito et al, eds.) 60, pp. 285-288, 1994; Nagafuji et al., Neuroreport 6, 1541-1545, 1995)
The reaction solution consisted of 100 nM L-[^3H] arginine, a prepared crude NOS enzyme sample (10-30 μg/ml protein), 1.25 mM CaCl2, 1 mM EDTA, 10 μg/ml calmodulin, 1 mM NADPH, 100 μM tetrahydrobiopterine, 10 μM FAD, 10 μM FMN and 50 mM Tris-HCl (pH 7.4), to which one of the compounds of the invention or one of the control compounds was added.
as §1

Chain of iNOS (type 2) (Q06518 whole entry, canonical isoform): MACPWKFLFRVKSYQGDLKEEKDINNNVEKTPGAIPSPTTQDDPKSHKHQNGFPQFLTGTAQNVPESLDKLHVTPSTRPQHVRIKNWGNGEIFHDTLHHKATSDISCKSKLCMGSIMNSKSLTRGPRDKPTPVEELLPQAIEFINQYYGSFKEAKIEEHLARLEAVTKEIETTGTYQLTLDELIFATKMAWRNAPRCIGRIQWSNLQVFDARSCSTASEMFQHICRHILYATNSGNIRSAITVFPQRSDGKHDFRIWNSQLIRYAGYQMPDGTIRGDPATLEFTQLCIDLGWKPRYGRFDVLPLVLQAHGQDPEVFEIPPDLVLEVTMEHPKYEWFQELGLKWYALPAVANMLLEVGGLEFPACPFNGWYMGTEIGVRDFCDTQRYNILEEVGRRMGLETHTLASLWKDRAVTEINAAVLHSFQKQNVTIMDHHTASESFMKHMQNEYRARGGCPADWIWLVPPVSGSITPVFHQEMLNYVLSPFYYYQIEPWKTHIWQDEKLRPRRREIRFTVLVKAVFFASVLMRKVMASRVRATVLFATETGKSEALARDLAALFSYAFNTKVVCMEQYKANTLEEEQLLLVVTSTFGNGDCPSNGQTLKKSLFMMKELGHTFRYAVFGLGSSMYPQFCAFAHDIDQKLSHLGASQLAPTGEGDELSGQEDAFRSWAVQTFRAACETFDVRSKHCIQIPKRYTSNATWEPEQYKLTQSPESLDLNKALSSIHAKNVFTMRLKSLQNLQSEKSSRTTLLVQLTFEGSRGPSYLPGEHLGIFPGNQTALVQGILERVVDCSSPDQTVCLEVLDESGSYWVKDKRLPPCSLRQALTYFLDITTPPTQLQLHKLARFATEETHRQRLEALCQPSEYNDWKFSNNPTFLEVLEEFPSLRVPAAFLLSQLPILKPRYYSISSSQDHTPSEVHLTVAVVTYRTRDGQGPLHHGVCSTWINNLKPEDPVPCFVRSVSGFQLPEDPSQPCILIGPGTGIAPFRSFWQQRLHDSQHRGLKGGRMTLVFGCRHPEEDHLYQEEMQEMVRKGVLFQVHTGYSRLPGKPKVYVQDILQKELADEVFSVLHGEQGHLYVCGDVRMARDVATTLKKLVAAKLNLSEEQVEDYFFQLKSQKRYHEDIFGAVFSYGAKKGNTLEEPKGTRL

`CCSC(=N)Nc1ccc(-n2cccc2)c(CN)c1` [Example 1, N-(3-aminomethyl-4-(pyrrol-1-yl)phenyl)-S-ethylisothiourea dihydrochloride]: in assay [1] (comparison drawn from Table 2), the “nNOS inhibiting activity compared with L-MIN” value was “more potent nNOS inhibiting activity than L-MIN” and the “selectivity for nNOS inhibition over eNOS compared with L-EIN” value (shortened to “selectivity for nNOS inhibition”) is recorded as “higher selectivity for nNOS inhibition over eNOS than L-EIN”. In assay [1], the IC50 worked out at 3.7 nM, the “Ratio of IC50 eNOS/nNOS” value is reported as 515 and the “Ratio of IC50 iNOS/nNOS” value stood at 2120. Also, in assay [2], the IC50 is 1920 nM and the “Ratio of IC50 eNOS/inos” value stood at 0.243. Also, 7930 nM corresponded to half-maximal inhibition in assay [3] (IC50).
On to `CCSC(=N)Nc1ccc(-n2cccn2)c(CN)c1` [Example 2, N-(3-aminomethyl-4-(pyrazol-1-yl)phenyl)-S-ethylisothiourea dihydrochloride], for which, in assay [1] (comparison drawn from Table 2), the “selectivity for nNOS inhibition” value was “higher selectivity for nNOS inhibition over eNOS than L-EIN”. Further, in assay [1], the IC50 stood at 6.3 nM, the “Ratio of IC50 eNOS/nNOS” value is 816 and the “Ratio of IC50 iNOS/nNOS” value is 3260. In assay [2], the IC50 worked out at 5130 nM and the “Ratio of IC50 eNOS/inos” value is listed as 0.250. Moreover, the IC50 in assay [3] was 20500 nM.
With `CCSC(=N)Nc1ccc(-n2cccn2)c(CN)c1C` [Example 7, N-(3-aminomethyl-2-methyl-4-(pyrazol-1-yl)phenyl)-S-ethylisothiourea dihydrochloride], the “selectivity for nNOS inhibition” value in assay [1] (comparison drawn from Table 2) is “higher selectivity for nNOS inhibition over eNOS than L-EIN”. Besides, the IC50 in assay [1] amounted to 22.4 nM; in assay [2], 21100 nM. The “Ratio of IC50 eNOS/nNOS” value in assay [1] is given as 943.
Turning to `N=C(NCCC[C@H](N)C(=O)O)NC1CC1` [L-CPA, N^G-cyclopropyl-L-arginine], the IC50 in assay [2] stood at 1540 nM; in assay [3], 7150 nM.
In assay [1], `CCSC(=N)NCCC[C@H](N)C(=O)O` [L-EIN, S-ethyl-L-thiocitrulline] had a pIC50 of 8.08. For the same compound, the IC50 in assay [2] was found to be 732 nM; in assay [3], 6760 nM.
As to `CSC(=N)NCCC[C@H](N)C(=O)O` [L-MIN, S-methyl-L-thiocitrulline, reference compound], in assay [1], the pIC50 is 8.24, the “Ratio of IC50 eNOS/nNOS” value is reported as 6.28 and the “Ratio of IC50 iNOS/nNOS” value is given as 43.3. Also, in assay [2], the IC50 was 35.8 nM and the “Ratio of IC50 eNOS/inos” value was 0.145. In assay [3], this compound registered an IC50 of 248 nM.
As for `N=C(NCCC[C@H](N)C(=O)O)N[N+](=O)[O-]` [L-NA, N^G-nitro-L-arginine], the IC50 in assay [3] came to 3460 nM.
For `COC(=O)[C@@H](N)CCCNC(=N)N[N+](=O)[O-]` [L-NAME, N^G-nitro-L-arginine methyl ester, reference compound], the results for the IC50 in assay [2] and in assay [3] were 670 nM and 13500 nM, respectively.

What is called IC50 is the point on the concentration scale where inhibition reaches its midpoint. One may read the pIC50 as −log10 of the IC50, conventionally taken in molar units.
